According to PMC5684613 (BioMed Research International, 2017):
Converted amounts (≈) assume the structure as drawn. Like-named read-outs stand apart in the source and are kept apart here.

Legend:
[1] = In vitro permeation study by everted gut sac method; type: in vitro ADME, albino Wistar rats; settings: male, albino Wistar, rat, pH 7.4; mucosal to serosal, n = 3; read-out: Apparent permeability coefficient mean ± SD
Method: (§1) The tissue was continuously aerated (oxygenated) with the aid of an electrical aerator. Intestinal segments of 4 cm were cut and ligated with nylon thread at one end and carefully everted on the glass rod. The everted gut sacs were filled with 500 μl of Tyrode solution and ligated at the other end and then placed inside the test tube containing 15 mL of the test solution continuously bubbled with atmospheric air at 15–20 bubbles per min separately. Test tubes were maintained at temperature 37 ± 0.5°C on water bath. The test solution outside the sac was termed as mucosal fluid, and the solution inside the sac was termed as serosal fluid.

everted gut sac = experiment: as above; type: in vitro ADME, albino Wistar rats; settings: after 2 h, serosal fluid, 1 mg/ml DRV outside
Method: as §1

[2] = Oral pharmacokinetic study, fasted and fed state; settings: for K el / AUC(0-t) / AUC / Cmax: oral; for K el / AUC(0-t) / AUC: 70 mg/kg DRV; for AUC(0-t): AUC0-t; for AUC: AUC0-α; for Cmax: C max, 70 mg/kg DRV (8 mg/kg Ritonavir)
[3] = cited from earlier work
[4] = Dissolution studies in FaSSIF and FeSSIF media; type: physicochemical; settings: n = 3
Method: These two biorelevant media, FaSSIF and FeSSIF, were developed to simulate the condition of the intestine in the fasted and fed states.
Blank FaSSIF was prepared by dissolving 6.186 g NaCl, 4.47 g NaH2PO4, and 0.348 g NaOH in 900 ml of distilled water and the pH was adjusted to 6.5 by using 1 N NaOH or HCl using pH meter. The volume was made up to 1000 ml using distilled water.
Blank FaSSIF medium (500 ml) was taken and 2.240 g SIF powder was added to it and this solution was magnetically stirred until the powder completely dissolved to obtain a clear micellar solution. The volume was made up to 1000 ml using the buffer. The solution was allowed to stand for 2 h; it becomes slightly opalescent and thereafter used. A volume of 500 ml is recommended for dissolution for simulating fasted state condition
Blank FeSSIF was prepared by dissolving 8.65 g glacial acetic acid, 11.874 g NaCl, and 4.04 g NaOH in 900 ml of distilled water and the pH was adjusted to 5.0 by using 1 N NaOH or HCl using pH meter. The volume was made up to 1000 ml using distilled water.
Blank FeSSIF medium (500 ml) was taken and 11.20 g SIF powder was added to it and this solution was magnetically stirred until the powder completely dissolved to obtain a clear micellar solution. The volume was made up to 1000 ml using the buffer and thereafter used. For simulating fed state condition 1 L dissolution fluid is recommended.

[5] = Phase solubility study of DRV in aqueous carrier solutions
[6] = In vitro dissolution study, USP II paddle, acetate buffer pH 4.5; type: physicochemical; settings: acetate buffer pH 4.5, after 90 min, n = 3
Method: Dissolution studies were performed using a USP II Paddle dissolution apparatus (Distek, USA). The prepared SDs were filled in 00 size capsules and placed in Japanese sinkers. The sinkers were then placed in dissolution vessels containing 900 ml of acetate buffer pH 4.5, at 75 rpm and temperature 37 ± 0.5°C. Samples (5 ml) were collected periodically at 15, 30, 45, 60, and 90 min, filtered through a 0.45 μm PVDF filter and replaced with a fresh dissolution medium (5 ml). The concentrations were analyzed at 264 nm by UV spectrophotometer.

[7] = design: method as in Kim et al. [32]; settings: simultaneous administration of curcumin, rats; ref Kim et al. [32]; cited from earlier work
[8] = design: method as in Varma and Panchagnula [30]; settings: ref Varma and Panchagnula [30], cited from earlier work
[9] = male, albino Wistar, rat, in vivo, po, 70 mg/kg, Group A (fasted)
[10] = male, albino Wistar, rat, in vivo, po, 70 mg/kg, Group B (fed)

CC(C)CN(C[C@@H](O)[C@H](Cc1ccccc1)NC(=O)O[C@H]1CO[C@H]2OCC[C@H]21)S(=O)(=O)c1ccc(N)cc1 [DRV, Darunavir]
Papp at 120 min, 1 mg/ml [1]: 0.828 ± 0.12 ×10⁻⁶ cm/s | concentration of the drug inside the sac (everted gut sac): 451480 ± 4020 ng/mL | K el ([2]; Group A (fasted)): 0.211 ± 0.002 | K el ([2]; Group B (fed)): 0.228 ± 0.003 | Tmax ([2]; male, albino Wistar, rat, in vivo, po, 70 mg/kg): 1 h | AUC(0-t) [2, 9]: 116 ng·h/mL | AUC(0-t) [2, 10]: 258 ng·h/mL | AUC [2, 9]: 117 ng·h/mL | AUC [2, 10]: 259 ng·h/mL | Cmax [2, 9]: 2860 ± 366 ng/mL | Cmax [2, 10]: 5870 ± 565 ng/mL | solubility in water [3]: 150 µg/mL (≈ 274 µM) | Cumulative % drug release (±SD) in FaSSIF ([4]; after 30 min): 13.8 ± 0.239% | Cumulative % drug release (±SD) in FaSSIF ([4]; after 60 min): 25.7 ± 0.512% | Cumulative % drug release (±SD) in FaSSIF ([4]; after 90 min): 31.2 ± 0.425% | solubility at 72 h [5]: 150 µg/mL (≈ 274 µM) | Cumulative % drug release (±SD) [6]: 30.9%

CC(C)(C)NC(=O)[C@@H]1C[C@@H]2CCCC[C@@H]2CN1C[C@@H](O)[C@H](Cc1ccccc1)NC(=O)[C@H](CC(N)=O)NC(=O)c1ccc2ccccc2n1 [Saquinavir]
increase of oral exposure [7]: 2.7 fold

CC(=O)O[C@H]1C(=O)[C@@]2(C)[C@H]([C@H](OC(=O)c3ccccc3)[C@]3(O)C[C@H](OC(=O)[C@H](O)[C@@H](NC(=O)c4ccccc4)c4ccccc4)C(C)=C1C3(C)C)[C@]1(OC(C)=O)CO[C@@H]1C[C@@H]2O [paclitaxel]
Intrinsic permeability ([8]; in the presence of 1 mg/ml TPGS): 22 ×10⁻⁶ cm/s | Intrinsic permeability ([8]; without TPGS): 8 ×10⁻⁶ cm/s
